Assay results taken from patent US9359371B2, “Bicyclic substituted pyrimidine compounds” (Xuanzhu Pharma Co., Ltd., priority 2012, dated 2016).
Where two headings read alike, the source gives them in different places.

Tests used:
[1] = biological target: PDE-11 (Homo sapiens (Human), UniProt Q9HCR9); experiment: Caliper Mobility-Shift PDE-11 Assay; format: biochemical; conditions: Table 4; maximum final concentration 10 μM
Method: Experiment 4: Measurement of Pharmacological Activity on PDE-11 Enzyme In Vitro
Method: enzyme assay, Caliper Mobility-Shift PDE-11 Assay
The test compound was accurately weighed, dissolved in DMSO, mixed thoroughly and formulated into 10 mM. The above stock solution was diluted to a concentration of 0.5 mM with DMSO, and then was gradiently diluted by a dilution factor of 3.162, resulting in 11 concentrations in total.
To a 96-well plate, 20 μL of 10 μM FL-cGMP as the substrate was added; then 1 μL solution of the compound in DMSO or DMSO solution without compound was added; and then 29 μL of 0.28 ng/μL PDE-11 enzyme buffer (100 mM Hepes pH 7.5, 5 mM MgCl2, 0.002% Brij-35) was added. The maximum final concentration of the compound was 10 μM. The plate was incubated at 30° C. for 1 h, and 20 μL of 70 μM EDTA was then added to stop the reaction. 26 μL of solution of each well was transferred to a 384-well plate. The conversion was read on a EZ reader II. The Inhibition rate was calculated by the formula below, and used to calculate IC50 by Prism 5.0 Inhibition rate=[Conversion (ZPE)−Conversion (sample)]×100/[Conversion (ZPE)−Conversion (HPE)]
Note: HPE: control without enzyme; ZPE: control without compound

[2] = biological target: hERG channel (Homo sapiens (Human), UniProt Q12809); experiment: hERG potassium channel whole-cell patch clamp on CHO-K1 cell line
Chain of hERG channel (Q12809 whole entry): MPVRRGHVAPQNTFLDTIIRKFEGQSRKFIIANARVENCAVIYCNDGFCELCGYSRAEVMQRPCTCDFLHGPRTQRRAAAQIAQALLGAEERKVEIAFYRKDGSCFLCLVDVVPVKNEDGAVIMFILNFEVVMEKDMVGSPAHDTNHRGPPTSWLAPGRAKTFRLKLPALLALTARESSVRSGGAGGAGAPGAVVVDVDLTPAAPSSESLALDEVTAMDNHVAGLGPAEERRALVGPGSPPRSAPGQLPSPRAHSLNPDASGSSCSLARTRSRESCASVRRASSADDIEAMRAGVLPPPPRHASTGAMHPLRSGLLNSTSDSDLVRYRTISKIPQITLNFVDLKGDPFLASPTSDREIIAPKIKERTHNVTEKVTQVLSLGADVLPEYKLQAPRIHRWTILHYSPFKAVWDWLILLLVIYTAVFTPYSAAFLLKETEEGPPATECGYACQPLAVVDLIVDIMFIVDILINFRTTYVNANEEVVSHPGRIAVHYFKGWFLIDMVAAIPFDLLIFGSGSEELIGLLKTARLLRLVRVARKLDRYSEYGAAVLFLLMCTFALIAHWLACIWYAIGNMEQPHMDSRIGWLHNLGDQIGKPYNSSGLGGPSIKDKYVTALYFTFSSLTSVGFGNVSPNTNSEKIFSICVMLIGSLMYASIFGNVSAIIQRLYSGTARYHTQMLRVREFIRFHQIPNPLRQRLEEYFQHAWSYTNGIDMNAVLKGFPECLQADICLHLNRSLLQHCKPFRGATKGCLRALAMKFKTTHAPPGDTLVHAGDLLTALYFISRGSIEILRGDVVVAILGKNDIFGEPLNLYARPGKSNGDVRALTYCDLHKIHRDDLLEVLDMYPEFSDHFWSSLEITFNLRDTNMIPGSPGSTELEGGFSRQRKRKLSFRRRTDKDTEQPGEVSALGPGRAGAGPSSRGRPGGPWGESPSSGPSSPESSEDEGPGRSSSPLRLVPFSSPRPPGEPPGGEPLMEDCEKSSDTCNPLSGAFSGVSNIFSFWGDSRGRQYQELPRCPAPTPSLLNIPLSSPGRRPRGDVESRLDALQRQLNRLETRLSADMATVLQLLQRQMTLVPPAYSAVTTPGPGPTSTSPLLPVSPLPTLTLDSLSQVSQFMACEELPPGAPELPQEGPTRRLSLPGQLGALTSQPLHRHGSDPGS

[3] = biological target: bovine retinal PDE-6 (Bos taurus (Bovine), UniProt P11541+P23439); experiment: PDE-6 enzyme assay, [3H]cGMP; format: biochemical
Chain of bovine retinal PDE-6 (Bos taurus (Bovine), UniProt P11541+P23439) (P11541 whole entry, looked up): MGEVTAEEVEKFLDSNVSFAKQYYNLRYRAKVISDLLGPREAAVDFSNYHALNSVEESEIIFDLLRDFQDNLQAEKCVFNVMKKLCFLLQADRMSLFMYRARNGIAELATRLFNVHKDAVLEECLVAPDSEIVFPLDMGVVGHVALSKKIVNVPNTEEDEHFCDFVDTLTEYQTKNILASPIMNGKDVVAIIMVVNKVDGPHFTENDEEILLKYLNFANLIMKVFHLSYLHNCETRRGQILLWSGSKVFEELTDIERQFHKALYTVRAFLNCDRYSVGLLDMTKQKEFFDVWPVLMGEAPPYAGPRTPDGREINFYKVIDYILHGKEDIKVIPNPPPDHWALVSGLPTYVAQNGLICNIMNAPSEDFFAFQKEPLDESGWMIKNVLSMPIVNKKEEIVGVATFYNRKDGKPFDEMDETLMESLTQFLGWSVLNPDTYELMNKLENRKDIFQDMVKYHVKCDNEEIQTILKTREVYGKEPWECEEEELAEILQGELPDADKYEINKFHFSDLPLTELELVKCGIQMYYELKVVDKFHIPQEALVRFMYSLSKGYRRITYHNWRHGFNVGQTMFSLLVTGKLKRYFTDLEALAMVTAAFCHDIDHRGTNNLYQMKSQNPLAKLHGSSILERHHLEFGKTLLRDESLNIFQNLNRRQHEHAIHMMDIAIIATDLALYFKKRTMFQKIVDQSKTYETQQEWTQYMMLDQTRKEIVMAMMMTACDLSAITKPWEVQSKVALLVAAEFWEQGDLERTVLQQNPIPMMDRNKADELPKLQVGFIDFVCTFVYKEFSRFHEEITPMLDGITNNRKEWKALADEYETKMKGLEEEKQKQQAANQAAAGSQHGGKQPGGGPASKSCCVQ
Chain of bovine retinal PDE-6 (Bos taurus (Bovine), UniProt P11541+P23439) (P23439 whole entry, looked up): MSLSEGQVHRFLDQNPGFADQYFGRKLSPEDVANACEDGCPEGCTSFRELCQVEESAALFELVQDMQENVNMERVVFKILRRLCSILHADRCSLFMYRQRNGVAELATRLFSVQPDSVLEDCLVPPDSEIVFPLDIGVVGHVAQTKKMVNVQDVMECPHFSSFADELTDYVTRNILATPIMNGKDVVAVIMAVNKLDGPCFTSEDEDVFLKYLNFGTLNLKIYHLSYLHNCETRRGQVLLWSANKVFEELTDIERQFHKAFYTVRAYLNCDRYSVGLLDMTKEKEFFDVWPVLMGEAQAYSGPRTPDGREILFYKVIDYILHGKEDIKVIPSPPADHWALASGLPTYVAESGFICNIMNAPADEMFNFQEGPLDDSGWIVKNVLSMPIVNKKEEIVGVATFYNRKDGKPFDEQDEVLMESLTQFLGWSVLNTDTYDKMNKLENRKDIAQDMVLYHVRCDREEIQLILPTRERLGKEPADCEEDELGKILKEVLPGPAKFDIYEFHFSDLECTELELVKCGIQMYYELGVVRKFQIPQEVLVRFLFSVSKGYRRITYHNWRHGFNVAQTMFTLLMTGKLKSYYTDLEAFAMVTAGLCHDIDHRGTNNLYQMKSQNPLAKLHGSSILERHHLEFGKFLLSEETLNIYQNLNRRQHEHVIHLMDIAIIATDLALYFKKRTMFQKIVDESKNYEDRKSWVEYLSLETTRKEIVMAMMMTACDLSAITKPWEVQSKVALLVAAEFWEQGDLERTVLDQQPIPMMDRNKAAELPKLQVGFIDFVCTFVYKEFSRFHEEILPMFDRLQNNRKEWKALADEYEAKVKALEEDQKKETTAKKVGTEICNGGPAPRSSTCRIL

[4] = system: bovine retinal PDE-6; experiment: PDE-6 enzyme assay, [3H]cGMP; format: biochemical

Chain of PDE-11 (Q9HCR9 whole entry): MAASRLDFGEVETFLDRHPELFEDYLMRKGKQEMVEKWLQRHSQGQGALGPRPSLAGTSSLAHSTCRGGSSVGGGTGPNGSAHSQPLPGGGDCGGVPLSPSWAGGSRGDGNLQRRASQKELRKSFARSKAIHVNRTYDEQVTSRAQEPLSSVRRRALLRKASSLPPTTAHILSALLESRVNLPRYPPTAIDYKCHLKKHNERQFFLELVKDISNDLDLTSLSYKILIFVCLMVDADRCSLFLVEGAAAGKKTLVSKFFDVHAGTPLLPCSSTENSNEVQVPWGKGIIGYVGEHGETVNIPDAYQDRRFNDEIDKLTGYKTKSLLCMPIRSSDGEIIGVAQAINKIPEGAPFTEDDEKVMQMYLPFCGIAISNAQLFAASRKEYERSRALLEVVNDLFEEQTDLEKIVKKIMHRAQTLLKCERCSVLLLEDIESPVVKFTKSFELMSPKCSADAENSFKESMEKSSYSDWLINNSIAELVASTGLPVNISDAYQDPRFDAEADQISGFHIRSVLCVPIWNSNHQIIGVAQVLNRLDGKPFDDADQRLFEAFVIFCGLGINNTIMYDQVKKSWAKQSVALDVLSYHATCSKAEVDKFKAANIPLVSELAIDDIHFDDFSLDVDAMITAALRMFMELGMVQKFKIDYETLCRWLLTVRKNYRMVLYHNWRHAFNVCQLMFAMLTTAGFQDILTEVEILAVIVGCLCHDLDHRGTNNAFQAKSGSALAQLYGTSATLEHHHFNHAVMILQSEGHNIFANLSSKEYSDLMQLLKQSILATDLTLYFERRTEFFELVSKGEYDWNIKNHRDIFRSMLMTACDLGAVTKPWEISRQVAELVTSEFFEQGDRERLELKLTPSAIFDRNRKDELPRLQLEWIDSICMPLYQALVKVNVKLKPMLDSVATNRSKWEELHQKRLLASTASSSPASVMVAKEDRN

COc1ccc(CNc2nc(N3CC4CC4C3)ncc2C(=O)N[C@H]2CC[C@H](O)CC2)cc1Cl (stereo partly drawn) [Compound 11, 2-(3-azabicyclo[3.1.0]hexan-3-yl)-4-((3-chloro-4-methoxybenzyl)amino)-N-(trans-4-hydroxycyclohexyl)pyrimidine-5-formamide]
IC50 [1]: > 10000 nM | IC50 [2]: > 30000 nM | inhibitory effect on hERG channel (in words) ([2]; human, CHO-K1 cells stably expressing hERG channel, pH 7.4): none of Compound 3, 11 and 50 of the present invention had a significant inhibitory effect | IC50 ([3]; Table 3, read-out: IC50 on PDE-6): 61 nM | IC50 ([3]; Table 4-1, read-out: PDE-6 (IC50 nM)): 61 nM | Selectivity (PDE-6/PDE-5) ([4]; IC50 for PDE-6/IC50 for PDE-5): 148 | selectivity on PDE-5 enzyme versus PDE-6 (in words) ([4]; selectivity >70 called high): higher selectivity on PDE-5 enzyme than to PDE-6
